Experimental findings from patent publication US11274092B2, “Potassium channel inhibitors” (ACESION PHARMA ApS, priority 2016, dated 2022) are described below.

This test concerns the target T1, human SK3 channel (hKCa2.3) (Homo sapiens, UniProt Q9UGI6).
T1 construct: expressed in transfected cells
Briefly: Automated whole cell patch-clamp (QPatch 16 HT), inhibition of SK3 current. It counts as cell-based. The following applies: HEK-293 cells stably expressing hKCa2.3; symmetrical K+ solutions, free calcium 400 nM; effects normalized to N-methyl bicuculline. The essentials:
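HEK-293 cells stably expressing hKCa2.3, automated whole-cell patch clamp in symmetrical K+ (400 nM free intracellular Ca2+, pH 7.2; external pH 7.4). Held at 0 mV, ramps −80 to +80 mV (200 ms) every 5 s; increasing compound concentrations, currents run-down corrected and normalized to 100 μM N-methyl bicuculline; IC50 reported.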
As a reminder, the IC50 is the concentration that inhibits the measured activity by half. Turning to `CCN(CC#N)C(=O)CC(Nc1nc2ccccc2[nH]1)c1cccc(C(F)(F)F)c1` (stereo not drawn) [Example 55, 3-[(1H-1,3-benzodiazol-2-yl)amino]-N-(cyanomethyl)-N-ethyl-3-[3-(trifluoromethyl)phenyl]propanamide], the 50% inhibitory concentration (IC50) is below 10 µM.
Take `O=C(CC(Nc1nc2ccccc2[nH]1)c1cccc(C(F)(F)F)c1)NCCOC(F)(F)F` (single isomer, unassigned) [Example 67a, 3-[(1H-1,3-benzodiazol-2-yl)amino]-N-[2-(trifluoromethoxy)ethyl]-3-[3-(trifluoromethyl)phenyl]propanamide]: the IC50 was below 10 µM.
Under `N#CCNC(=O)CC(Nc1nc2ccccc2[nH]1)c1cccc(C(F)(F)F)c1` (stereo not drawn) [Example 21, 3-[(1H-1,3-benzodiazol-2-yl)amino]-N-(cyanomethyl)-3-[3-(trifluoromethyl)phenyl]propanamide] stands below 10 µM.
`C[N+]1(C)CCN(C(=O)C(Nc2nc3ccccc3[nH]2)c2cccc(C(F)(F)F)c2)CC1` (stereo not drawn) [Example 37, 4-{2-[(1H-1,3-benzodiazol-2-yl)amino]-2-[3-(trifluoromethyl)phenyl]acetyl}-1,1-dimethylpiperazin-1-ium iodide]: the half-maximal inhibitory concentration (IC50) was 10 to 100 µM.
On to `CC(C)S(=O)(=O)N1CCN(C(=O)C(Nc2nc3ccccc3[nH]2)c2cccc(C(F)(F)F)c2)CC1` (stereo not drawn) [Example 33, 2-[(1H-1,3-benzodiazol-2-yl)amino]-1-[4-(propane-2-sulfonyl)piperazin-1-yl]-2-[3-(trifluoromethyl)phenyl]ethan-1-one], for which the IC50 was in the range of 10 to 100 µM.
The figure for `CN(C)CCN(C)C(=O)CC(Nc1nc2ccccc2[nH]1)c1cccc(C(F)(F)F)c1` (stereo not drawn) [Example 2, 3-[(1H-1,3-benzodiazol-2-yl)amino]-N-[2-(dimethylamino)ethyl]-N-methyl-3-[3-(trifluoromethyl)phenyl]propanamide] is 10 to 100 µM.
The figure for `O=C(CC(Nc1nc2ccccc2[nH]1)c1cccc(SC(F)(F)F)c1)NCc1nc2ccccc2o1` (stereo not drawn) [Example 89, 3-[(1H-1,3-benzodiazol-2-yl)amino]-N-(1,3-benzoxazol-2-ylmethyl)-3-{3-[(trifluoromethyl)sulfanyl]phenyl}propanamide] is below 10 µM; for `CCN(CCN(C)C)C(=O)CC(Nc1nc2ccccc2[nH]1)c1cccc(C(F)(F)F)c1` (stereo not drawn) [Example 45, 3-[(1H-1,3-benzodiazol-2-yl)amino]-N-[2-(dimethylamino)ethyl]-N-ethyl-3-[3-(trifluoromethyl)phenyl]propanamide] it is 10 to 100 µM; for `O=C(CC(Nc1nc2ccccc2[nH]1)c1cccc(C(F)(F)F)c1)N1CCC(O)CC1` (stereo not drawn) [Example 5, 3-[(1H-1,3-benzodiazol-2-yl)amino]-1-(4-hydroxypiperidin-1-yl)-3-[3-(trifluoromethyl)phenyl]propan-1-one] it is 10 to 100 µM.
Under `O=C(CC(Nc1nc2ccccc2[nH]1)c1cccc(C(F)(F)F)c1)NCc1ncco1` (stereo not drawn) [Example 18, 3-[(1H-1,3-benzodiazol-2-yl)amino]-N-[(1,3-oxazol-2-yl)methyl]-3-[3-(trifluoromethyl)phenyl]propanamide] stands below 10 µM; under `O=C(CC(Nc1nc2ccccc2[nH]1)c1cccc(C(F)(F)F)c1)N[C@H]1CCOC1` (stereo partly drawn) [Example 9, 3-[(1H-1,3-benzodiazol-2-yl)amino]-N-[(3S)-oxolan-3-yl]-3-[3-(trifluoromethyl)phenyl]propanamide], below 10 µM.
With `O=C(CC(Nc1nc2ccccc2[nH]1)c1cccc(C(F)(F)F)c1)N1CC[C@@H](O)C1` (stereo partly drawn) [Example 14, 3-[(1H-1,3-benzodiazol-2-yl)amino]-1-[(3R)-3-hydroxypyrrolidin-1-yl]-3-[3-(trifluoromethyl)phenyl]propan-1-one], the IC50 lay within 10 to 100 µM.
Under `CCc1cc(C(CC(=O)N(CC)CCO)Nc2nc3ccccc3[nH]2)ccc1F` (stereo not drawn) [Example 65, 3-[(1H-1,3-benzodiazol-2-yl)amino]-N-ethyl-3-(3-ethyl-4-fluorophenyl)-N-(2-hydroxyethyl)propanamide] stands below 10 µM; under `N#CCNC(=O)CC(Nc1nc2ccccc2[nH]1)c1cccc(OC(F)(F)F)c1` (stereo not drawn) [Example 85, 3-[(1H-1,3-benzodiazol-2-yl)amino]-N-(cyanomethyl)-3-[3-(trifluoromethoxy)phenyl]propanamide], below 10 µM; under `CCN(CCO)C(=O)CC(Nc1nc2ccccc2[nH]1)c1ccc(F)c(C)c1` (single isomer, unassigned; (-)) [Example 39a, (−)3-[(1H-1,3-benzodiazol-2-yl)amino]-N-ethyl-3-(4-fluoro-3-methylphenyl)-N-(2-hydroxyethyl)propanamide], below 10 µM.
The figure for `CN(CCO)C(=O)C(Nc1nc2ccccc2[nH]1)c1cccc(C(F)(F)F)c1` (stereo not drawn) [Example 30, 2-[(1H-1,3-benzodiazol-2-yl)amino]-N-(2-hydroxyethyl)-N-methyl-2-[3-(trifluoromethyl)phenyl]acetamide] is below 10 µM; for `O=C(CC(Nc1nc2ccccc2[nH]1)c1cccc(C(F)(F)F)c1)NCC1COC1` (stereo not drawn) [Example 7, 3-[(1H-1,3-benzodiazol-2-yl)amino]-N-(oxetan-3-ylmethyl)-3-[3-(trifluoromethyl)phenyl]propanamide] it is 10 to 100 µM; for `O=C(CC(Nc1nc2ccccc2[nH]1)c1cccc(OC(F)(F)F)c1)NCCOC(F)(F)F` (stereo not drawn) [Example 83, 3-[(1H-1,3-benzodiazol-2-yl)amino]-N-[2-(trifluoromethoxy)ethyl]-3-[3-(trifluoromethoxy)phenyl]propanamide] it is below 10 µM.
Under `O=C(CC(Nc1nc2ccccc2[nH]1)c1cccc(C(F)(F)F)c1)NCCCO` (stereo not drawn) [Example 16, 3-[(1H-1,3-benzodiazol-2-yl)amino]-N-(3-hydroxypropyl)-3-[3-(trifluoromethyl)phenyl]propanamide] stands 10 to 100 µM; under `Cc1noc(C)c1CCNC(=O)CC(Nc1nc2ccccc2[nH]1)c1cccc(C(F)(F)F)c1` (stereo not drawn) [Example 74, 3-[(1H-1,3-benzodiazol-2-yl)amino]-N-[2-(dimethyl-1,2-oxazol-4-yl)ethyl]-3-[3-(trifluoromethyl)phenyl]propanamide], below 10 µM.
On to `O=C(CC(Nc1nc2ccccc2[nH]1)c1cccc(C(F)(F)F)c1)NCC1CCCO1` (stereo not drawn) [Example 8, 3-[(1H-1,3-benzodiazol-2-yl)amino]-N-(oxolan-2-ylmethyl)-3-[3-(trifluoromethyl)phenyl]propanamide], for which the 50% inhibitory concentration (IC50) is below 10 µM.
